{"source": "patent US20140303396A1", "about": "“Method for Preparing High-Purity Fesoterodine Fumarate” (CHEMI S.P.A., priority 2009, published 2014)", "key": {"[1]": {"test": "Solution stability in methylethylketone at T = 40° C. (HPLC)", "type": "physicochemical", "description": "In detail, the experiment related to Table 1 consists of dissolving fesoterodine fumarate in methylethylketone at 40° C., drawing samples of the freshly dissolved solution (time 0), after 1, 3 and 20 hours of maintenance at 40° C. and analyzing them in HPLC in order to verify their purity."}, "[2]": {"test": "Solid stability at T = 60° C. in atmosphere with 60% relative humidity (HPLC)", "type": "physicochemical", "parameters": "Impurity RRt = 1.05 / Impurity RRt = 1.34 / Diester impurity: unit not given here", "description": "In confirmation thereof, another stability test was carried out at 60° C. on the crystallized solid product, whose results are reported in Table 2. In detail, the experiment consists of introducing a sample of fesoterodine fumarate in an oven capable of maintaining a temperature of 60° C. and 60% relative humidity, drawing samples of the freshly introduced substance (time 0) after 24, 48, 72 and 144 hours staying in such conditions, and analyzing them in HPLC in order to verify their purity."}}, "data": [{"molecule": "CC(C)C(=O)Oc1ccc(CO)cc1[C@H](CCN(C(C)C)C(C)C)c1ccccc1.O=C(O)/C=C/C(=O)O", "note": "[fesoterodine fumarate, 2-((R)-3-diisopropylammonium-1-phenylpropyl)-4-(hydroxymethyl) phenyl isobutyrate hydrogen fumarate]", "values": [{"measurement": "Feso fumaric ester impurity", "setting": "[1]; t = 0", "value": 0.07}, {"measurement": "HPLC Purity", "setting": "[1]; t = 0", "value": 99.87, "unit": "Area %"}, {"measurement": "Impurity RRt = 1.34", "setting": "[1]; t = 0", "value": 0.06}, {"measurement": "Feso fumaric ester impurity", "setting": "[1]; t = 1 hour", "value": 0.09}, {"measurement": "HPLC Purity", "setting": "[1]; t = 1 hour", "value": 99.85, "unit": "Area %"}, {"measurement": "Impurity RRt = 1.34", "setting": "[1]; t = 1 hour", "value": 0.06}, {"measurement": "(R)-feso-deacyl", "setting": "[1]; t = 3 hours", "value": 0.01, "unit": "%"}, {"measurement": "Diester impurity", "setting": "[1]; t = 3 hours", "value": 0.04}, {"measurement": "Feso fumaric ester impurity", "setting": "[1]; t = 3 hours", "value": 0.12}, {"measurement": "HPLC Purity", "setting": "[1]; t = 3 hours", "value": 99.77, "unit": "Area %"}, {"measurement": "Impurity RRt = 1.34", "setting": "[1]; t = 3 hours", "value": 0.06}, {"measurement": "(R)-feso-deacyl", "setting": "[1]; t = 20 hours", "value": 0.02, "unit": "%"}, {"measurement": "Diester impurity", "setting": "[1]; t = 20 hours", "value": 0.06}, {"measurement": "Feso fumaric ester impurity", "setting": "[1]; t = 20 hours", "value": 0.14}, {"measurement": "HPLC Purity", "setting": "[1]; t = 20 hours", "value": 99.70, "unit": "Area %"}, {"measurement": "Impurity RRt = 1.34", "setting": "[1]; t = 20 hours", "value": 0.08}, {"measurement": "(R)-feso-deacyl", "setting": "[2]; t = 0", "value": 0.02, "unit": "%"}, {"measurement": "Diester impurity", "setting": "[2]; t = 0", "value": 0.04}, {"measurement": "Feso fumaric ester impurity", "setting": "[2]; t = 0", "value": 0.09}, {"measurement": "HPLC Purity", "setting": "[2]; t = 0", "value": 99.85, "unit": "Area %"}, {"measurement": "(R)-feso-deacyl", "setting": "[2]; t = 24 h", "value": 0.02, "unit": "%"}, {"measurement": "Diester impurity", "setting": "[2]; t = 24 h", "value": 0.04}, {"measurement": "Feso fumaric ester impurity", "setting": "[2]; t = 24 h", "value": 0.11}, {"measurement": "HPLC Purity", "setting": "[2]; t = 24 h", "value": 99.83, "unit": "Area %"}, {"measurement": "(R)-feso-deacyl", "setting": "[2]; t = 48 h", "value": 0.02, "unit": "%"}, {"measurement": "Diester impurity", "setting": "[2]; t = 48 h", "value": 0.04}, {"measurement": "Feso fumaric ester impurity", "setting": "[2]; t = 48 h", "value": 0.12}, {"measurement": "HPLC Purity", "setting": "[2]; t = 48 h", "value": 99.74, "unit": "Area %"}, {"measurement": "Impurity RRt = 1.34", "setting": "[2]; t = 48 h", "value": 0.08}, {"measurement": "(R)-feso-deacyl", "setting": "[2]; t = 72 h", "value": 0.03, "unit": "%"}, {"measurement": "Diester impurity", "setting": "[2]; t = 72 h", "value": 0.04}, {"measurement": "Feso fumaric ester impurity", "setting": "[2]; t = 72 h", "value": 0.13}, {"measurement": "HPLC Purity", "setting": "[2]; t = 72 h", "value": 99.72, "unit": "Area %"}, {"measurement": "Impurity RRt = 1.05", "setting": "[2]; t = 72 h", "value": 0.02}, {"measurement": "Impurity RRt = 1.34", "setting": "[2]; t = 72 h", "value": 0.06}, {"measurement": "(R)-feso-deacyl", "setting": "[2]; t = 144 h", "value": 0.05, "unit": "%"}, {"measurement": "Diester impurity", "setting": "[2]; t = 144 h", "value": 0.04}, {"measurement": "Feso fumaric ester impurity", "setting": "[2]; t = 144 h", "value": 0.14}, {"measurement": "HPLC Purity", "setting": "[2]; t = 144 h", "value": 99.64, "unit": "Area %"}, {"measurement": "Impurity RRt = 1.05", "setting": "[2]; t = 144 h", "value": 0.03}, {"measurement": "Impurity RRt = 1.34", "setting": "[2]; t = 144 h", "value": 0.07}, {"measurement": "RRt = 1.86", "setting": "[2]; t = 144 h", "value": 0.03, "unit": "%"}]}]}
